“Also recorded” adds a separate entry of the source. Where a name gives a salt, the structure may show the parent alone. Read-outs that look alike come from different tables or passages of the source.
Columns and labels:
MMP-2 = MMP-2 (Homo sapiens (Human), UniProt P08253); assay: Enzyme inhibition studies, MMP-2; type: biochemical; conditions: slow-binding, Ki calculated from koff/kon
ADAM10 = ADAM10 (Homo sapiens (Human), UniProt O14672); assay: Enzyme inhibition studies, ADAM10; type: biochemical; conditions: at 100 μM; listed as ND-336, HCl salt
MMP-1 = MMP-1 (Homo sapiens (Human), UniProt P03956); assay: Enzyme inhibition studies, MMP-1 catalytic domain; type: biochemical; conditions: at 100 μM; listed as ND-336, HCl salt
ADAM9 = ADAM9 (Homo sapiens (Human), UniProt Q13443); assay: Enzyme inhibition studies, ADAM9; type: biochemical; conditions: at 100 μM; listed as ND-336, HCl salt
MMP-9 = MMP-9 (Homo sapiens (Human), UniProt P14780); assay: Gel experiment, cleavage of tau by MMP-9; type: biochemical; conditions: in words
MMP-7 = MMP-7 (Homo sapiens (Human), UniProt P09237); assay: Enzyme inhibition studies, MMP-7; type: biochemical; conditions: at 100 μM; listed as ND-336, HCl salt
[1] = Pharmacokinetics and brain distribution after single iv dose
Description: Mice (male CD-1, 6-7 weeks old, ˜30 g body weight, specific pathogen free) were purchased from Charles River Laboratories, Inc. (Wilmington, Mass., USA).
Samples were analyzed by ultraperformance liquid chromatography (UPLC)/(+)electrospray ionization (ESI)-multiple-reaction monitoring (MRM) with a reversed phase C18 column (Acclaim® RSLC 120 C18, 2.2 μm, 120 Å, 2.1×100 mm, Dionex, Sunnyvale, Calif., USA).
Quantification of the compounds in plasma and brain was obtained using peak-area ratios of the compounds to the internal standard, and the linear-regression parameters obtained from the calibration curves.

diabetic (db/db) mice = assay: Mouse diabetic wound model; type: in vivo; conditions: compared with ND-322; in words
Description: The excisional mouse diabetic model validated by Sullivan et al. was used (Sullivan et al., Plast. Reconstr. Surg. (2004) 113, 953-960). The procedure for inflicting the wounds (single 8 mm wound on the dorsal region) was the same as described previously (Gooyit et al., ACS Chem. Biol. (2014) 9, 505-510). Wounds were photographed and covered with a sterile 3M Tegaderm™ transparent dressing (Butler Schein Animal Health, Inc.).
Female diabetic db/db (BKS.Cg-Dock7m+/+Leprdb/J, 8-weeks old, 38±3 g, n=24) were used for this study. Wounds were inflicted as described. Treatment with the MMP-2 inhibitor (50 μL of 5.0 mg/mL in 80% propylene glycol/20% DMSO, equivalent to 0.25 mg per wound) or vehicle (50 μL of 80% propylene glycol/20% DMSO) was started one day after wound infliction and continued once a day for 14 days. Digital photographs of wounds were taken on days 0, 7, 10, and 14 while the animals were under isoflurane anesthesia. On day 14, all mice were sacrificed. The wounds were excised, embedded in optimal cutting temperature (OCT) compound, and cryosectioned for histological evaluation.
Female diabetic db/db (BKS.Cg-Dock7m+/+Leprdb/J, 8-weeks old, 38±3 g, n=24) were used for this study. Wounds were inflicted and the following day the wounds were treated topically with MMP-8 (50 μL of 20 μg/mL MMP-8 in reaction buffer) or vehicle (50 μL reaction buffer) once a day for 14 days. The reaction buffer consisted of 50 mM Tris (pH 7.5), 10 mM CaCl2, 150 mM NaCl, and 0.05% (w/v) Brij-35. Digital photographs of the wounds were taken on days 0, 7, 10, and 14 while animals were under isoflurane anesthesia. On days 7 and 14, 12 mice (n=6 per group) were sacrificed. The wounds were excised, embedded in OCT compound, and cryosectioned for histological evaluation.
Photographs were taken using the procedure described by Gooyit et al. (ACS Chem Biol. (2014) 9, 505-510) at a fixed distance above the wounds and calibrated using a ruler included in the photographic frame. Image J 1.48c software was used to calculate wound areas. The percentage of wound closure was calculated from the wound area on the specified day relative to that on day 0.
Fresh wound tissue was harvested and embedded in OCT compound. Subsequently, the tissue was cryosectioned for H&E staining (12-μm thickness) and for apoptosis assays and in-situ zymography (8-μm thickness). Re-epithelialization was assessed on a Nikon Eclipse 90i Fluorescent Microscope (Nikon Instruments Inc.) as described earlier (Tkalcevic et al., Toxicol. Pathol. (2009) 37, 183-192). Apoptosis was evaluated using Derma TACS™ Apoptosis detection kits (Trevigen, Inc.) according to the manufacturer's instructions. The protocol of in-situ zymography was adapted from known methods. Gelatinolytic activity was detected in unfixed cryostat sections using DQ-gelatin as a substrate. DQ-gelatin was prepared at a concentration of 20 μg/mL in Tris-buffered saline (TBS) buffer (50 mM TBS pH 7.6, 1 mM CaCl2). A general MMP inhibitor in 0.5 mM EDTA was prepared as a negative control. Cryostat sections were air-dried for 10 min and incubated in the substrate mixture in the presence and absence of EDTA for 1 hr at room temperature. After the incubation period, the slides were washed in PBS (three times, 5 min each), fixed with 4% paraformaldehyde in PBS for 10 min in the dark, washed again with PBS (three times, 5 min each), incubated in the dark for 5 min with 300 nM DAPI solution, and mounted with anti-quenching mounting medium. Fluorescence of FITC was detected with excitation at 460-500 nm and emission at 512-542 nm. DAPI was detected with excitation at 340-380 nm and emission at 425-∞ nm.
Data are expressed as mean±SD. Wound healing between the groups in the studies were analyzed for statistical significance using a paired Student t-test, where p<0.05 was considered statistically significant.

MMP-3 = MMP-3 (Homo sapiens (Human), UniProt P08254); assay: Enzyme inhibition studies, MMP-3 catalytic domain; type: biochemical; conditions: at 100 μM; listed as ND-336, HCl salt
MMP-14 = MMP-14 (Homo sapiens (Human), UniProt P50281); assay: Enzyme inhibition studies, MMP-14 catalytic domain; type: biochemical
[2] = male, CD-1, mouse, in vivo, 5 mg/kg
[3] = male, CD-1, mouse, in vivo, iv, 5 mg/kg
[4] = plasma, 5 mg/kg single iv, mice

Sequence of MMP-2 (P08253 110-660): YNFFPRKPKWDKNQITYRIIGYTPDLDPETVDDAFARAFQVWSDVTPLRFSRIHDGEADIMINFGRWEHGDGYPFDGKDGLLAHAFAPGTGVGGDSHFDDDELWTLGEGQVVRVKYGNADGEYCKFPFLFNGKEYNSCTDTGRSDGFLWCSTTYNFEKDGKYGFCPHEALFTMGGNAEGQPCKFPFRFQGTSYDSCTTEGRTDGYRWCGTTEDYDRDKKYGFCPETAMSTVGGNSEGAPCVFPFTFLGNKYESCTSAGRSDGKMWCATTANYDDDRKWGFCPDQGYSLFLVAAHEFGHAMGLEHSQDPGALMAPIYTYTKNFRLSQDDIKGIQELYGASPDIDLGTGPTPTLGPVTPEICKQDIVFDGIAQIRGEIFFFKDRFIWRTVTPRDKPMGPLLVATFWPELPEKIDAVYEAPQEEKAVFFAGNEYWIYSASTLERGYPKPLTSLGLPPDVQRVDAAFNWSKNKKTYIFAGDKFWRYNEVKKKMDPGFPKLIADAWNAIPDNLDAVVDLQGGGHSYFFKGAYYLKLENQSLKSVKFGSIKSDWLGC
Sequence of ADAM9 (Q13443 206-697): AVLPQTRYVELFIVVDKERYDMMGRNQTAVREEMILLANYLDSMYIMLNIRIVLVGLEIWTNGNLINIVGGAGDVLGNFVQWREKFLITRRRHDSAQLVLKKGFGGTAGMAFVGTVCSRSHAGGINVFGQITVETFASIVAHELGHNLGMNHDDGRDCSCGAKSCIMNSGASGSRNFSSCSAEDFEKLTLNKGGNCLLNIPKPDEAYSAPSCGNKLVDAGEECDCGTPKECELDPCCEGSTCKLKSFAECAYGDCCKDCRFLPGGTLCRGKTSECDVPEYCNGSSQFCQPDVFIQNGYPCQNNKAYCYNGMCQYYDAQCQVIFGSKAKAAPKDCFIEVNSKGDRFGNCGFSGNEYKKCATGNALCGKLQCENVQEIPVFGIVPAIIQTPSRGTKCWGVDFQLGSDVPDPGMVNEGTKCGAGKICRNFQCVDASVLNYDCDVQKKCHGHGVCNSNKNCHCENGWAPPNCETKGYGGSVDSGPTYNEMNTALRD
Sequence of MMP-9 (P14780 94-707, species assumed): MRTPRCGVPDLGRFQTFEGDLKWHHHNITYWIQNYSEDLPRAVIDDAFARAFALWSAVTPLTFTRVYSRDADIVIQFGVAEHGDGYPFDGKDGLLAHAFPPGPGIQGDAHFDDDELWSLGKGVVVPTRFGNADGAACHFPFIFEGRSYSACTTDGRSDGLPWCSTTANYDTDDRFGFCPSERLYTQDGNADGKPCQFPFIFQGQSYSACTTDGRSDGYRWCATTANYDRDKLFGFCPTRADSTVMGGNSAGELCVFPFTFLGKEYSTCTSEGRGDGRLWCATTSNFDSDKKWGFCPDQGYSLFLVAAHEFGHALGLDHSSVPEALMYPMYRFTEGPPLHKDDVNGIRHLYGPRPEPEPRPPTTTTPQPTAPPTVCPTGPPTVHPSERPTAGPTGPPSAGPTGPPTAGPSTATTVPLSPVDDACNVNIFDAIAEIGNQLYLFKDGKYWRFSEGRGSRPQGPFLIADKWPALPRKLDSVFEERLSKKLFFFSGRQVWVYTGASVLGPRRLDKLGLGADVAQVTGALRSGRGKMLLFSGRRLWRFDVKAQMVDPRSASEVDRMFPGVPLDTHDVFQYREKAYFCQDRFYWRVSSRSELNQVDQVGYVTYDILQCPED
Sequence of MMP-3 (P08254 100-272): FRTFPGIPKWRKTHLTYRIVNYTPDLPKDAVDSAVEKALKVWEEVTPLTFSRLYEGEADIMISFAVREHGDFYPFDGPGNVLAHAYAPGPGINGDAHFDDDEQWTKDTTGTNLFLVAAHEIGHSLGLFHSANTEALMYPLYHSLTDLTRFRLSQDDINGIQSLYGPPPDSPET
Sequence of MMP-1 (P03956 98-276): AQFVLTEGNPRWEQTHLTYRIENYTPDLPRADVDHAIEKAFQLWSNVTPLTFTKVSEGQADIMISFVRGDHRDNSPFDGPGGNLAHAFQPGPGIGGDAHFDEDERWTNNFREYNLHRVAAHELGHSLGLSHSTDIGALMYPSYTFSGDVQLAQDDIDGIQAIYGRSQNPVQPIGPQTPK
Sequence of ADAM10 (O14672 214-672): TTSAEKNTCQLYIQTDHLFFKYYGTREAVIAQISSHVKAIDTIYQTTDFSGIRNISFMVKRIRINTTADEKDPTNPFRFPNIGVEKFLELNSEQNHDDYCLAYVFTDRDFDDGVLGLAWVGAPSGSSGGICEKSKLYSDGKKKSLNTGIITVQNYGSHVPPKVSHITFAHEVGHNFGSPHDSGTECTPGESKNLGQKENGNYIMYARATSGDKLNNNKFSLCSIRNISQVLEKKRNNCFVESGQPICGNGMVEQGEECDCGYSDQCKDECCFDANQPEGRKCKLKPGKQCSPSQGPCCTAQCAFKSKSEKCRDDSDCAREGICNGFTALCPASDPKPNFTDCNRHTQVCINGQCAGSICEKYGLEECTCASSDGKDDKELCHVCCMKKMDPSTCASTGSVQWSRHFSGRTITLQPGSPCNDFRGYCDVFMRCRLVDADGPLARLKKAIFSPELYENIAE
Sequence of MMP-7 (P09237 95-267): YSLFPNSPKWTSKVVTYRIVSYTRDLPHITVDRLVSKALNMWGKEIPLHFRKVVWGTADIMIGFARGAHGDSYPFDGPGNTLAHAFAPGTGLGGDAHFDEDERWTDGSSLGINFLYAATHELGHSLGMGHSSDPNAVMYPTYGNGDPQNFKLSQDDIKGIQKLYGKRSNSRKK

NCc1ccc(Oc2ccc(S(=O)(=O)CC3CS3)cc2)cc1 (stereo not shown) [Compound 5, (4-(4-((Thiiran-2-ylmethyl)sulfonyl)phenoxy)phenyl)methanamine HCl salt]
Ki (MMP-2; Ki): 85 ± 1 nM
Ki (MMP-2): 85 nM
Inhibition (ADAM10): Ki (ADAM-10) 14% inhibition at 100 μM
Inhibition (MMP-1): Ki (MMP-1) 4% inhibition at 100 μM
Inhibition (ADAM9): Ki (ADAM-9) 31% inhibition at 100 μM
cleavage of tau in the presence of MMP-9 (MMP-9): prevents cleavage of tau
Inhibition (MMP-7): Ki (MMP-7) 1% inhibition at 100 μM
time brain levels above Ki for MMP-2 ([1]; 5 mg/kg single iv, mice): at least 30 min
time brain levels above Ki for MMP-9 ([1]; 5 mg/kg single iv, mice): at least 30 min
time plasma levels above Ki for MMP-2 ([1]; 5 mg/kg single iv, mice): at least 30 min
time plasma levels above Ki for MMP-9 ([1]; 5 mg/kg single iv, mice): at least 30 min
Brain concentration ([1]; 2 min after 5 mg/kg single iv, mice): 5.55 ± 2.38 pmol/mg tissue
Brain concentration ([1]; 5 min after 5 mg/kg single iv, mice): 2.97 ± 2.41 pmol/mg tissue
Brain concentration ([1]; 10 min after 5 mg/kg single iv, mice): 1.20 ± 0.50 pmol/mg tissue
Brain concentration ([1]; 30 min after 5 mg/kg single iv, mice): 0.213 ± 0.143 pmol/mg tissue
Brain concentration ([1]; 60 min after 5 mg/kg single iv, mice): 0.0368 ± 0.0232 pmol/mg tissue
Brain concentration ([1]; 90 min after 5 mg/kg single iv, mice): 0.0213 ± 0.0106 pmol/mg tissue
Brain concentration ([1]; 120 min after 5 mg/kg single iv, mice): 0.0158 ± 0.0125 pmol/mg tissue
Brain concentration ([1]; 240 min after 5 mg/kg single iv, mice): 0.00531 ± 0.00402 pmol/mg tissue
AUC0-last ([1]; brain, 5 mg/kg single iv, mice): 57.7 pmol·min/mg
AUC0-∞ ([1]; brain, 5 mg/kg single iv, mice): 58.3 pmol·min/mg
t1/2α ([1]; brain, 5 mg/kg single iv, mice): 3.32 min
t1/2β ([1]; brain, 5 mg/kg single iv, mice): 75.3 min
crossing of the blood-brain barrier ([1]; in words, listed as ND-336, HCl salt): cross the blood-brain barrier; also recorded: crosses the BBB
concentration at 2 min [1, 2]: 4350 ± 1100 nM
concentration at 5 min [1, 2]: 3150 ± 1490 nM
concentration at 10 min [1, 2]: 2390 ± 820 nM
concentration at 30 min [1, 2]: 377 ± 116 nM
concentration at 60 min [1, 2]: 57.4 ± 31.6 nM
concentration at 90 min [1, 2]: 33.2 ± 6.5 nM
concentration at 120 min [1, 2]: 21.8 ± 5.4 nM
concentration at 240 min [1, 2]: 6.94 ± 6.06 nM
AUC(0-inf) [1, 3]: 1.23 µM·h
AUC(0-t) [1, 3]: 1.22 µM·h
Kp [1, 3]: 0.793
Vd [1, 3]: 2.76 L/kg
clearance [1, 3]: 202 mL/min/kg
AUC0-last [1, 4]: 72.9 µM·min
AUC0-∞ [1, 4]: 73.6 µM·min
CL [1, 4]: 202 mL/min/kg
t1/2α [1, 4]: 6.47 min
t1/2β [1, 4]: 68.0 min
efficacy in mouse model of diabetic wound healing (diabetic (db/db) mice): significantly better efficacy than ND-322
Inhibition (MMP-3): Ki (MMP-3) 23% inhibition at 100 μM
Ki (MMP-14): 120 ± 10 nM
Ki (MMP-14; catalytic domain, slow-binding, Ki from koff/kon): 120 nM

— patent publication US9951035B2, “Selective matrix metalloproteinase inhibitors” (University of Notre Dame du Lac, priority 2014, dated 2018)
